Laboratory results published in PMC9369794 (Molecules, 2022).

How the values were obtained:
[1] = Study of aggregation by UV-Vis spectrophotometry; assay type: physicochemical; details: for type of aggregates formed: from THF:aqueous solutions; for change of UV spectrum with increasing ratio of PBS: starting from THF solutions
Source text: It has been known for a long while that carotenoids or their derivatives can be prone to supramolecular organization in water or water-organic solvent mixtures. This behaviour is especially interesting because this higher organization can modulate or alter biological properties of carotenoids, as well [40]. A tendency to form supramolecular structures can be tested by recording the UV spectra in an organic solvent and increasing the ratio of water in the sample. […] We have some recent experience of such behaviour of carotenoid-flavonoid conjugates.
All of our adducts were tested with the method above using tetrahydrofurane (THF) or dimethylsulfoxide (DMSO) with increasing ratio of phosphate-buffered saline (PBS), which was the medium of the antioxidant measurements. […]
1. Study of Aggregation by UV-Vis Spectrophotometry
Starting from THF solutions: each conjugate was dissolved in freshly distilled THF and the solutions were diluted
either with THF or THF-PBS mixtures to obain final solutions of identical carotenoid concentration. […]
Figure S1. UV-spectra of 8’-apo-β-carotenol succinate ( 6) ( a) in THF and in THF-PBS mixtures ( 1:1 , 1:3); (b) in DMSO
Figure S2. UV-spectra of zeaxanthin bissuccinate ( 7) ( a) in THF and in THF-PBS mixtures ( 1:1 , 1:3); (b) in DMSO and
Figure S3. UV-spectra of zeaxanthin monosuccinate ( 11) ( a) in THF and in THF-PBS mixtures ( 1:1 , 1:3); (b) in DMSO […]

[2] = Hydrodynamic diameter and colloidal stability of aggregates by dynamic light scattering; assay type: physicochemical; details: for mean size (hydrodynamic diameter) / zeta potential: 37 °C; for PDI: sd^2/mean size^2
Method: In contrary, all spectra gave a hypsochromic shift and loss of fine-structure when the DMSO solutions were diluted with PBS, which refers to the formation of H-type (card-pack) aggregates (Figures S1–S12). Since DMSO-containing aqueous systems are more suitable for biological studies, we examined these solution by dynamic light scattering (DLS) spectroscopy to gain more information about the particles. The concentrations of the examined solutions were the same as used in the ABTS/TEAC measurements (0.3125–5.00 μM, see next section).
Size determination of aggregates and the colloidal stability of the sample dispersions were determined by dynamic light scattering measurements, where the hydrodynamic diameter of particles, and zeta potential values were collected. The number-weighted size distribution indicated one main peak in each case, the polydispersity index (PDI) was calculated as sd^2/mean size^2. For the particle size analysis Malvern Zetasizer Nano S instrument and for the zeta potential determination Malvern Zetasizer Nano Z instrument were used (Malvern Panalytical Ltd., Great Malvern, Worcestershire, UK). The measurements were carried out in autocorrelation mode, and the following parameters were kept constant: scattering angle 173°, attenuator 11 and its factor 0.0146, measurement position 4.65 mm. The concentrations of sample dispersions were between 0.3125 and 5 µM. The dispersion medium was PBS. Each samples was examined after 6 min incubation period at 37 °C.

[3] = TEAC assay using ABTS radical; details: 6 min, ratio of slopes to trolox (melatonin dissolved in EtOH); for TEAC from DMSO: stock in DMSO diluted with PBS pH 7.4, 37 °C; for TEAC from THF: stock in THF diluted with PBS pH 7.4, 37 °C
Method: This method uses a redox reaction between ABTS^•+ radical cation and the examined antioxidants, which act as the reducing agents. […] As the carotenoids and the conjugates are poorly soluble in water, they were dissolved first either in small amounts of freshly distilled tetrahydrofuran (THF) or in dimethylsulfoxide (DMSO), and these stock solutions were diluted with phosphate-buffered saline (PBS) to the final nominal concentration.
The TEAC values were determined in isotonic phosphate buffer of pH 7.4. The buffer solution was made by dissolving 9.55 g of DPBS powder in distilled water to form 1L of solution (composition: 0.138 M NaCl, 0.0027 M KCl, 0.0081 M Na2HPO4, 0.0015 M KH2PO4). The assay was performed according to a literature process with slight modifications. The ABTS^•+ radical cation was produced by reacting 7 mM 2,2′-azino-bis(3-ethylbenzothiazoline-6-sulfonic acid) and 2.45 mM potassium persulfate in water. The stock ABTS^•+ solution was prepared 12–16 h before the experiments, and stored at room temperature in dark. The absorbance of the ABTS^•+ solution was set to 0.70 ± 0.05 at 734 nm by a ca. 100-fold dilution with phosphate-buffered saline (PBS). […] The stock solutions were diluted with PBS such that equal amounts of the diluted solutions were added to the ABTS^•+ reagent to obtain final antioxidants concentrations of 0.3125, 0.625, 1.25, 2.50, 3.75, 5 μM, respectively. In the blank (0 μM), the solutions of the antioxidants were substituted with THF or DMSO.
The antioxidants were incubated with ABTS^•+ solution at 37 °C for 6 min. During the reaction of ABTS^•+ with the antioxidants the absorbance of the solution decreases. The percentage inhibition of absorbance at 734 nm was calculated as (A0 − Aantioxidant)/A0, where A0 is the absorbance of the ABTS^•+ solution and Aantioxidant is the absorbance measured after the addition of the antioxidant. The determinations were carried out at each concentration in triplicate. The calculated values were plotted against the final concentration of the antioxidants. The slopes of the curves were compared with that for trolox, the TEAC value is the ratio of the slopes for the antioxidant and for trolox.

[4] = FRAP assay for the antioxidant capacity; parameters: key to FRAP: slope of concentration-absorbance line divided by Trolox slope; details: stock in THF, acetate buffer pH 3.0, 37 °C, 15 min; ratio of slopes to trolox (melatonin in EtOH)
Method: In the FRAP method the antioxidant reduces Fe^3+ to Fe^2+ in an acidic medium. These experiments were performed in an acetate buffer of pH 3.0, the stock solutions of the examined antioxidants were prepared in THF. The antioxidant capacities were compared to that of Trolox as a standard, just like in the ABTS assays.
A modified literature process was used. The FRAP reagent should also be prepared freshly each day. 2,4,6-Tris(2-pyridyl)-s-triazin (TPTZ) was dissolved in a 200 mM HCl solution and diluted with water to get a final 40 mM HCl and 10 mM TPTZ concentration. For the preparation of the FRAP reagent 30 mL of 20 mM FeCl3 solution and 30 mL of 10 mM TPTZ solution were mixed, and 300 mL of 300 mM acetate buffer with pH 3.0 was added (a pH lower than usual was used to avoid the precipitation of the TPTZ). The FRAP reagent was incubated at 37 °C for 15 min. 150 μL of antioxidant dissolved in THF was mixed with 2.85 mL FRAP reagent solution, and incubated at 37 °C for 15 min in dark. Measurements were carried out at each antioxidant concentration (0, 7.5; 10; 12.5; 15; 17.5 μM final concentration) in triplicate. In the 0 μM solution the antioxidant solution was substituted with acetate buffer (pH 3.0). The FRAP was determined at 600 nm: the absorbance values were plotted as a function of concentration of the sample compounds and that of Trolox for the standard reference data. The FRAP values were calculated as in the ABTS assays, i.e., the slope of the concentration-absorbance lines for the carotenoid derivatives was divided by that for the trolox.

[5] = 0.3125 μM in PBS from DMSO stock
[6] = 0.625 μM in PBS from DMSO stock

Row | SMILES | melting point [°C] | change of UV spectrum with increasing ratio of PBS [1] | mean size (hydrodynamic diameter) [2, 5] | zeta potential [2, 5] [mV] | mean size (hydrodynamic diameter) [2, 6] | zeta potential [2, 6] [mV] | mean size (hydrodynamic diameter) ([2]; 1.25 μM in PBS from DMSO stock) | zeta potential ([2]; 1.25 μM in PBS from DMSO stock) [mV] | mean size (hydrodynamic diameter) ([2]; 2.5 μM in PBS from DMSO stock) [nm] | zeta potential ([2]; 2.5 μM in PBS from DMSO stock) [mV] | PDI ([2]; 2.5 μM in PBS) | mean size (hydrodynamic diameter) ([2]; 3.75 μM in PBS from DMSO stock) [nm] | zeta potential ([2]; 3.75 μM in PBS from DMSO stock) [mV] | PDI ([2]; 3.75 μM in PBS) | mean size (hydrodynamic diameter) ([2]; 5 μM in PBS from DMSO stock) [nm] | zeta potential ([2]; 5 μM in PBS from DMSO stock) [mV] | PDI ([2]; 5 μM in PBS) | TEAC from DMSO [3] | TEAC from THF [3] | FRAP [4] | also measured
1 | COc1ccc2[nH]cc(CCNC(=O)CNC(=O)CCC(=O)O[C@@H]3CC(C)=C(/C=C/C(C)=C/C=C/C(C)=C/C=C/C=C(C)/C=C/C=C(C)/C=C/C(=O)[C@]4(C)C[C@@H](OC(=O)CCC(=O)NCC(=O)NCCc5c[nH]c6ccc(OC)cc56)CC4(C)C)C(C)(C)C3)c2c1 [Compound 17, Capsanthin-dimelatonin conjugate] | 130 to 131 | bathochromic shift | 24.42 nm | −31.0 | 43.47 nm | −22.9 | 101.60 nm | −21.1 | 226.30 | −22.2 | 0.1650 | 58.55 | −27.5 | 0.1693 | 236.60 | −27.0 | 0.1273 | 2.53 | 1.519 | 0.629 | type of aggregates formed [1]: J-type (head-to-tail) aggregates; PDI ([2]; 0.3125 μM in PBS): 0.0408; PDI ([2]; 0.625 μM in PBS): 0.1239; PDI ([2]; 1.25 μM in PBS): 0.1362
2 | COc1ccc2[nH]cc(CCNC(=O)CNC(=O)CCC(=O)O[C@@H]3CC(C)=C(/C=C/C(C)=C/C=C/C(C)=C/C=C/C=C(C)/C=C/C=C(C)/C=C/C4=C(C)C[C@@H](OC(=O)CCC(=O)NCC(=O)NCCc5c[nH]c6ccc(OC)cc56)CC4(C)C)C(C)(C)C3)c2c1 [Compound 14, Zeaxanthin-bismelatonin conjugate] | 149 to 150 | bathochromic shift | too large for DLS | −0.7 | too large for DLS | −0.7 | too large for DLS | −1.0 | 137.50 | −0.4 | 0.0147 | 91.77 | −0.2 | 0.0108 | 705.10 | 0.0 | 0.0659 | 2.79 | 2.080 | 0.206 | type of aggregates formed [1]: J-type (head-to-tail) aggregates
3 | COc1ccc2[nH]cc(CCNC(=O)CNC(=O)CCC(=O)O[C@@H]3CC(C)=C(/C=C/C(C)=C/C=C/C(C)=C/C=C/C=C(C)/C=C/C=C(C)/C=C/C4=C(C)C[C@@H](O)CC4(C)C)C(C)(C)C3)c2c1 [Compound 13, Zeaxanthin-monomelatonin conjugate] | 156 to 157 | bathochromic shift | 388.20 nm | 16.0 | 551.20 nm | 15.4 | 364.50 nm | 2.2 | 638.90 | 2.2 | 0.0217 | 79.01 | 0.7 | 0.0112 | 565.30 | 1.1 | 0.0311 | 1.34 | 1.434 | 0.152 | type of aggregates formed [1]: J-type (head-to-tail) aggregates; PDI ([2]; 0.3125 μM in PBS): 0.0336; PDI ([2]; 0.625 μM in PBS): 0.0410; PDI ([2]; 1.25 μM in PBS): 0.0270; hydrodynamic diameter of the aggregates ([2]; over the concentrations 0.3125–5.00 μM): 400–600 nm
4 | COc1ccc2[nH]cc(CCNC(=O)CNC(=O)CCC(=O)OC/C(C)=C/C=C/C(C)=C/C=C/C=C(C)/C=C/C=C(C)/C=C/C3=C(C)CCCC3(C)C)c2c1 [Compound 18, 8′-Apo-β-carotenol-melatonin conjugate] | 123 to 124 | did not cause much change | 148.60 nm | −22.0 | 212.00 nm | −22.8 | 127.50 nm | −24.5 | 93.29 | −29.5 | 0.1229 | 182.80 | −31.4 | 0.1662 | 201.10 | −37.5 | 0.1788 | 3.00 | 2.891 | 0.123 | PDI ([2]; 0.3125 μM in PBS): 0.0199; PDI ([2]; 0.625 μM in PBS): 0.0397; PDI ([2]; 1.25 μM in PBS): 0.0726
